Results published in patent US6376504B1 (Parker Hughes Institute, priority 1998, dated 2002).
Entries after “also recorded” stand apart in the source; their conditions may differ. Read-outs that look alike come from different tables or passages of the source.

Columns and labels:
[1] = test system: normal human endocervical epithelial cells (CrEC-En 4312); assay: MTT cell proliferation assay, endocervical epithelial cells; assay type: cell-based; settings: for IC50: Homo sapiens, Epithelial cell, read-out: IC50 endocervical epithelial cells; for SI (Selectivity Index) endocervical epithelial cells: ratio of IC50 to EC50 (sperm)
Protocol: (§1) Normal human ectocervical (CrEC 4627) and endocervical epithelial cells (CrEC-En 4312) were obtained from Clonetics, (San Diego, Calif.) and propagated in T-150 cm^2 tissue culture flasks (Corning Corp., Corning, N.Y.) in small airway epithelial cell basal medium (Clonetics) supplemented with 50 μg/ml BPE, 0.5 μg/ml hydrocortisone, 0.5 μg/ml hEGF, 0.1 μg/ml retinoic acid, […] trasferrin, 5 μg/ml insulin, 5 μg/ml epinephrine, and 0.5 mg/ml BSA-FAF.
(§2) Briefly, cells were harvested with 0.125% (w/v) trypsin-0.02% EDTA (GIBCO) from exponential-phase maintenance cultures and centrifuged (300 g×5 minutes). After suspension and counting, cells were dispensed within triplicate 96-well tissue culture plates in 100 μl volumes. […] NNIs were reconstituted in DMSO to a concentration of 100 mM. […] Control wells with medium containing 0.25% of DMSO alone were included as controls. Culture plates were then incubated for 24 hour before adding 10 μl of MTT solution (5 mg/ml in PBS) to each well. Wells containing only medium and MTT were used as control for each plate. The tetrazolium/formazan reaction was allowed to proceed for 4 hours at 37° C., and then 100 μl of the solubilization buffer (10% sodium dodecyl sulfate in 0.1% HCl) was added to all wells and mixed thoroughly to dissolve the dark blue formazan crystals.
(§3) After an overnight incubation at 37° C., the optical densities (OD) at 540 nm were measured using a 96-well multiscanner autoreader with the solubilization buffer serving as blank, To translate the OD540 values into the number of live cells in each well, the OD540 values were compared to those on standard OD540-versus-cell number curves generated for each cell line. The percent survival was calculated using the formula: % survival=Live cell number [test]/Live cell number [control]×100. All assays were run in triplicate and the results were expressed as IC50 values. The IC50 was defined as the concentration required for 50% reduction in cell survival.

[2] = test system: human sperm acrosomal membrane; assay: Sperm acrosomal membrane integrity, confocal laser scanning microscopy (FITC-Pisum sativum lectin); assay type: cell-based; settings: for acrosome status in confocal images: 500 μM, 6 hours
Protocol: The percentages of sperm with an intact acrosome following a 6 hour treatment with and without increasing concentrations (31.2 μM to 500 μM) o f th e three NNIs (S-DABO, F-PBT and D-PBT in comparison to N-9 were evaluated by CLSM. Ethanol permeabilized and airdried sperm smears were stained sequentially with the three fluorescent markers, FITC-Pisum sativum lectin, TOTO-3 iodide, and Nile red (Molecular Probes, Eugene, Oreg.) because their targets are different (acrosome, nucleus, and membrane lipid respectively). Samples were examined under a BioRad MRC-1024 Laser Scanning Confocal Microscope (BioRad Laboratories, Hercules, Calif.) equipped with a krypton/argon mixed gas laser (excitation lines 488, 568, and 647 nm) and mounted on a Nikon Eclipse E800 series upright microscope. The fluorescence emission of fluorescein, TOTO-3 iodide, and Nile red from the acrosomal region, nucleus, and the plasma membrane of sperm after ethanol permteabilization were si multan eously detected using the […], and 680 DF32 emission/filter, respectively. Confocal images were obtained using a Nikon 100×(NA 1.35) objective lens and Kalman collection filter. Digitized images were saved on a Jaz disk (Iomega Corporation, Roy, UT) and process ed using Lasersharp Bio-Rad) with the Adobe Photoshop software (Adobe Systems, Mountain View, Calif.). Final images were printed on a Fuji Pictrography 3000 (Fuji Photo Film Co., Tokyo, Japan) color printer.

human sperm [3] = assay: Sperm immobilizing activity, concentration-dependent, CASA; assay type: cell-based; settings: for EC50: Homo sapiens, Sperm, read-out: Spermicidal activity EC50 (sperm motility); for effect on sperm motility: concentrations as high as 500 μM
Protocol: All donor sperm specimens were obtained after informed consent and in compliance with the guidelines of the Hughes Institute Institutional Review Board. Motile sperm (≧10×10^6/ml), were suspended in 1 ml of Biggers, whitten, and Whittingam's medium (BWW) containing 25 mM HEPES (Irvine Scientific, Santa Ana, Calif.), and 0.3% BSA in the presence and absence of serial two-fold dilutions of test substance (500 μM to 31.2 μM) in 1% DMSO. The stock solutions of NNIs were prepared in DMSO (100 mM) and diluted in assay medium to yield the desired concentrations. Corresponding volume of DMSO (1%) was added to control tubes. N-9 was diluted in BWW-0.3% BSA (pH 7.4) to yield the desired concentrations (31.2 μM to 500 μM). After 3 hours of incubation at 37° C., the percentage of motile sperm was evaluated by CASA by procedures as described in D'Cruz et al., BIOL REPROD, 58:1515-1526, (1998); and D'Cruz et al., MOL HUM REPROD, 4:683-693 (1998). The percent motilities were compared with sham-treated control suspensions of motile sperm. The spermicidal activity of test compounds was expressed as the EC50 (the final concentration of the compound in medium that decreases the proportion of motile sperm by 50%).
(§4) For CASA, 4 μl of each sperm suspension were loaded into two 20-μm Microcell chambers in a counting chamber at 37° C. At least 5-8 fields per chamber were scanned for analysis using a Hamilton Thome Integrated Visual Optical System (IVOS), version 10 instrument (Hamilton Thorne Research Inc., Danvers, Mass.). Each field was recorded for 30 seconds. The computer calibrations were set at 30 frames at a frame rate of 30/second. Other settings were as follows: minimum contrast 8; minimum size 6; low-size gate, 1.0; high-size gate, 2.9; low-intensity gate, 0.6; high-intensity gate, 1.4; phase-contrast illumination; low path velocity at 10 μm/s, and threshold straightness at 80%; and magnification factor, 1.95.
(§5) The sperm kinematics parameters that were determined included numbers of motile (MOT) and progressively (PRG) motile sperm; curvilinear velocity (VCL; a measure of the total distance traveled by a given sperm during the acquisition divided by the time elapsed); average path velocity (VAP; the spatially averaged path that eliminates the wobble of the sperm head), straight line velocity (VSL; the straight-line distance from beginning to end of track divided by time taken), beat cross frequency (BCF; frequency of sperm head crossing sperm average path), the amplitude of lateral head displacement (ALH; the mean width of sperm head oscillation), and the derivatives, straightness (STR=VSL/VAP×100) and linearity (LIN=VSL/VCL×100; departure of sperm track from a straight line). Data from each individual cell track were recorded and analyzed. At least 200 motile sperm were a nalyzed for each aliquot sampled.

HTLVIIIB strain of HIV-1 = assay: p24 antigen production in HIV-1 (HTLVIIIB) infected PBMCs; settings: Human immunodeficiency virus 1, PBMC
Protocol: The HTLVIIIB strain of HIV-1 was propagated in CCRF-CEM cells and the virus stocks obtained from cell-free supernatants of infected cells were titered using MT-2 cells. Cell-free supernatants were harvested and frozen in 1 ml aliquots at −70° C. Titration of the stock virus was performed using MT-2 cells and the cytopathic effect of the virus used in this study was typical of HIV-1 on MT-2 cells.
Cells were cultured for 7 days in 96-well microtiter plates (100 μl/well; 2×10^6 cells/ml, triplicate wells) in the presence and absence of various concentrations (0.001 μM to 100 μM) of the anti-HIV agents. Cells from non-infected controls were handled in the same way except the virus was omitted from the preparation. Aliquots of culture supernatants were removed from the wells on the 7th day after infection for RT assays and p24 antigen, as previously described in the following references: Erice et al., ANTIMICROB AG CHEMOTHER, 37:835-838 (1993); Uckun et al., ANTIMICROB AGENTS CHEMOTHER, 42:383-388 (1998); and Zarling et al., Nature 347:92-95 (1990).
The p24 enzyme immunoassay was the unmodified kinetic assay available commercially (Coulter Corporation/Immunotech, Inc., Westbrook, Me.). The assay uses a murine monoclonal antibody to the HIV core protein coated onto microwell strips to which the antigen present in the test culture supernatant sample binds. […] The plates were read on a ELISA reader (Molecular Devices, Sunnyvale, Calif.) at 650 nm and p24 levels, expressed as ng/ml, were calculated against known standards supplied by Coulter/Immunotech, Inc. Percent viral inhibition was calculated by comparing the p24 values for the test substance-treated infected cells with the p24 values for untreated infected cells (i.e., virus controls).
Percent inhibition of virus replication was calculated by comparing the p24 antigen values or RT activity from the test drug-treated infected cells with p24 antigen values or RT activity from untreated infected cells. The anti-HIV activity of compounds was expressed as the IC50 values, calculated from the dose-response curves, and defined as the drug concentration that decreases the HIV-1 RT activity or p24 antigen production in HIV-1 infected PBMCs, by 50%.

[4] = test system: normal human ectocervical epithelial cells (CrEC 4627); assay: MTT cell proliferation assay, ectocervical epithelial cells; assay type: cell-based; settings: for IC50: Homo sapiens, Epithelial cell, read-out: IC50 ectocervical epithelial cells; for SI (Selectivity Index) ectocervical epithelial cells: ratio of IC50 to EC50 (sperm)
Protocol: as §1, §2, §3

[5] = biological target: purified recombinant HIV RT (Human immunodeficiency virus type 1 group M subtype B, UniProt P04585); assay: RT inhibitory activity against purified recombinant HIV RT (cell-free Quan-T-RT scintillation proximity assay)
Protocol: In the assay, a DNA/RNA primer/template is bound to SPA beads via a biotin/streptavidin linkage. The primer DNA is a 16-mer oligo(T) which has been annealed to a poly(rA) template. The primer/template is bound to a streptavidin-coated SPA bead. ^3H-TTP is incorporated into the primer by reverse transcription. In brief, ^3H-TTP, at a final concentration of 0.5 Ci/sample was diluted in RT assay buffer (49.5 mM Tris-HCl, pH 8.0, 80 mM KCl, 10 mM MgCl2, 10 mM DTT, 2.5 mM EGTA, 0.05% Nonidet-P-40), and added to annealed DNA/RNA bound to SPA beads. The compound being tested was added to the reaction mixture at 0.001 μM-100 μM concentrations. […] The reaction was stopped by addition of 0.2 ml of 120 mM EDTA. The samples were counted in an open window using a Beckman LS 7600 instrument (Beckman Instruments, Fullerton, Calif.).

human sperm [6] = assay: Time-dependent sperm immobilization and sperm kinematic parameters, CASA; assay type: cell-based; settings: 1 mM
Protocol: To test the effect of duration of incubation on SIA of spermicidal NNIs, motile fractions of sperm (10^7/ml) were incubated at 37° C. in BWW-0.3% BSA in the presence of 1 mM F-PBT, S-DABO in 1% DMSO or 1% DMSO alone as vehicle control. At timed intervals of 5 or 10 minutes, duplicate aliquots (4-μl) were transferred to two 20 μm Microcell chambers (Conception Technologies) and sperm motility was assessed by CASA for a duration of 60 minutes.
as §4, §5

[7] = 168 h, read-out: IC50 p24 (HTLVIIIB)
[8] = 3 hours incubation at 37° C., CASA
[9] = in Homo sapiens, read-out: IC50[p24], HIV replication in PBMCs

CCCCCCCCCc1ccc(OCCOCCOCCOCCOCCOCCOCCOCCOCCO)cc1 [Compound N-9, nonoxynol-9, reference compound]
IC50 ([1]; 24 h): 0.011 mM
SI (Selectivity Index) endocervical epithelial cells [1]: 0.13
acrosome status in confocal images [2]: no green fluorescence; also recorded: only acrosome-reacted sperm
acrosomal staining (FIG. 5A) ([2]; after 6 hours of incubation): complete loss of acrosomal staining
EC50 (human sperm [3]; 3 h): 81 µM
IC50 (HTLVIIIB strain of HIV-1; [7]): 2200 nM
IC50 ([4]; 24 h): 0.015 mM
SI (Selectivity Index) ectocervical epithelial cells [4]: 0.18

COc1ccc(OC)c(CCNC(=S)Nc2ccc(Br)cn2)c1 [D-PBT, N-[2-(2,5-dimethoxyphenethyl)]-N′-[2-(5-bromopyridyl)]-thiourea]
effect on sperm motion parameters (PRG, VCL, VAP, VSL, STR, LIN, BCF, ALH) (human sperm [3]; CASA): did not alter the sperm motion parameters
EC50 (human sperm [3]; [8]): > 500 µM
effect on sperm motility (human sperm [3]): did not affect sperm motility
IC50 (HTLVIIIB strain of HIV-1; [7]): < 1 nM
IC50 (HTLVIIIB strain of HIV-1; [9]): < 1 nM
IC50 [5]: 100 nM

Fc1ccccc1CCNC(=S)Nc1ccc(Br)cn1 [F-PBT, N-[2-(2-fluorophenethyl)]-N′-[2-(5-bromopyridyl)]-thiourea]
IC50 ([1]; 24 h): > 1 mM
IC50 [1]: > 1 mM
SI (Selectivity Index) endocervical epithelial cells [1]: >6.8
time required for 50% motility loss of progressively motile sperm (human sperm [6]; 37° C.): 10 min
beat cross frequency (BCF) and amplitude of lateral head displacement (ALH) (human sperm [6]; time-dependent, 60 minutes): relatively stable
linearity (LIN) and straightness (STR) (human sperm [6]; time-dependent, 60 minutes): remained relatively constant
movement characteristics of surviving sperm (VCL, VAP, VSL) (human sperm [6]; time-dependent, 60 minutes): significant changes
acrosome status in confocal images [2]: acrosomes remained intact; also recorded: None of the FIGS. 5B, 5C, or 5D show increased acrosome reaction
spermicidal activity (in words) (human sperm [3]): concentration- and time-dependent spermicidal activity
EC50 (human sperm [3]; 3 h): 147 µM
IC50 (HTLVIIIB strain of HIV-1; [7]): < 1 nM
IC50 (HTLVIIIB strain of HIV-1; [9]): < 1 nM
IC50 [5]: 400 nM
IC50 ([4]; 24 h): > 1 mM
IC50 [4]: > 1 mM
SI (Selectivity Index) ectocervical epithelial cells [4]: >6.8

CSCSc1nc(Cc2ccccc2)c(C(C)C)c(=O)[nH]1 [S-DABO, 5-isopropyl-2-[(methylthiomethyl)thio]-6-(benzyl)-pyrimidin-4-(1H)-one]
IC50 ([1]; 24 hours treatment, MTT): > 4 mM
IC50 ([1]; MTT dose survival curves): > 4 mM
SI (Selectivity Index) endocervical epithelial cells [1]: >19.8
acrosome status in confocal images [2]: acrosomes remained intact; also recorded: None of the FIGS. 5B, 5C, or 5D show increased acrosome reaction
spermicidal activity (in words) (human sperm [3]): concentration- and time-dependent spermicidal activity
EC50 (human sperm [3]; [8]): 202 µM
IC50 (HTLVIIIB strain of HIV-1; [7]): < 1 nM
IC50 (HTLVIIIB strain of HIV-1; [9]): < 1 nM
IC50 [5]: 6100 nM
IC50 ([4]; 24 hours treatment, MTT): > 4 mM
IC50 ([4]; MTT dose survival curves): > 4 mM
SI (Selectivity Index) ectocervical epithelial cells [4]: >19.8

S=C(NCCc1ccccn1)Nc1ccc(Br)cn1 [Trovirdine, reference compound]
effect on sperm motion parameters (PRG, VCL, VAP, VSL, STR, LIN, BCF, ALH) (human sperm [3]; CASA): did not alter the sperm motion parameters
EC50 (human sperm [3]; 3 h): > 500 µM
effect on sperm motility (human sperm [3]): did not affect sperm motility
IC50 (HTLVIIIB strain of HIV-1; [7]): 7 nM
